Source: patent US7799800B2, “Lipid-modified immune response modifiers” (3M Innovative Properties Company, priority 2003, dated 2010)

| Compound | melting point [°C] |
| --- | --- |
| CCCCCCCCCCCC(=O)NCCOCCn1c(CCOC)nc2c(N)nc3ccccc3c21 [Example 3, N-(2-{2-[4-amino-2-(2-methoxyethyl)-1H-imidazo[4,5-c]quinolin-1-yl]ethoxy}ethyl)dodecanamide] | 80 to 83 |
| CCCCCCCCCCCCCCCCCC(=O)NCCOCCn1c(CCOC)nc2c(N)nc3ccccc3c21 [Example 2, N-(2-{2-[4-amino-2-(2-methoxyethyl)-1H-imidazo[4,5-c]quinolin-1-yl]ethoxy}ethyl)octadecanamide] | 80 to 83 |
| CCCCCCCCCCCCCC(=O)NCCOCCn1c(CCOC)nc2c(N)nc3ccccc3c21 [Example 4, N-(2-{2-[4-amino-2-(2-methoxyethyl)-1H-imidazo[4,5-c]quinolin-1-yl]ethoxy}ethyl)tetradecanamide] | 85 to 87 |
